Experimental data taken from US4042707A, “3α-Arylhydroisoindoles” (E. I. Du Pont de Nemours and Company, priority 1976, dated 1977).
Structures can show the parent of a compound that is named as a salt.

Legend:
[1] = Straub Tail (ST), oral; conditions: mouse, in vivo, mice, high ED50 desired
Text: (§1) Ideally a low ED50 dosage for PQW and a high ED50 dosage for ST (Straub Tail) is desired.
(§2) There is a close correlation between a drug's addiction liability and its ability to cause Straub tail in mice [Shemano and Wendel, Tox. Appl. Pharm., 6, 334-339 (1964)] at doses much below the LD50. […] This property is the basis of a test for detecting new narcotic antagonist drugs.

[2] = tested on: phenylquinone-induced writhing; assay: phenylquinone writhing (PQW) test, analgesic activity, oral, mice; assay type: in vivo; conditions: Mus musculus, fasted female white mice, phenylquinone i.p. at 23 or 30 min, ED50 for 50% of mice
Procedure: A standard procedure for detecting and comparing the analgesic acitivity of the compounds, for which there is good correlation with human efficacy, is the standard phenylquinone writhing (PQW) test modified from Siegmund, et al., Proc. Soc. Exp. Biol. Med. 95, 729 (1957). A test compound suspended in 1% methylcellulose was given orally to fasted (17-21 hours) female white mice, 5-20 animals per double blind test. Aqueous (0.01% phenyl-p-benzoquinone)phenylquinone was injected intraperitoneally at 23 or 30 minutes later using 0.25 ml per mouse. […] The effective analgesic dose for 50% of the mice (ED50) was calculated by the moving average method of Weil, Biometrics 8, 249 (1952).
as §1

[3] = tested on: Straub tail induced by morphine sulfate; assay: narcotic antagonist test: prevention of morphine-induced Straub tail in mice; assay type: in vivo; conditions: test drug s.c. 10 min before morphine sulfate 40 mg/kg s.c., observed 20 min, fasted female CF1 S mice; for ED50: Mus musculus, sc, read-out: ED50, prevention of 90° Straub tail (narcotic antagonism)
Procedure: as §2
17-21 Hour fasted female CF1 S mice 5 per dose were injected subcutaneously (loose skin inside hind limb) with test drug at 0.67, 2, 6, 18, 54, and 162 mg/kg in 0.20 ml 1% Methocel® per mouse. 10 Minutes later, a dosage of 40 mg/kg (base weight) of morphine sulfate in 0.20 ml 1% Methocel® per mouse was given subcutaneously (nape of neck). The mice were observed continuously for the next 20 minutes after the first mouse of a group of 30 had received morphine. Prevention of a 90° Straub tail during this observation period was taken as indication of narcotic antagonist ability. The table below gives the results for several compounds.

[4] = tested on: Straub tail in mice induced by morphine; conditions: Blumberg, Dayton, and Wolf 1968; cited from earlier work

Compound | ED50 [1] [mg/kg] | ED50 [2] [mg/kg] | further results
COc1cccc([C@]23CC(C)=C(C)C[C@@H]2CN(CC2CC2)C3)c1 (relative stereo) | > 135 | 78 | 
C=CCN1C[C@@H]2CC=CC[C@]2(c2ccccc2)C1 (relative stereo) | > 200 | 140 | 
CN1C[C@@H]2CC=CC[C@]2(c2ccccc2)C1 (relative stereo) | > 162 | 32 | 
CN1C[C@@H]2CCCC[C@]2(c2ccccc2)C1 (relative stereo) | > 200 | 90 | 
COc1cccc([C@]23CC=CC[C@H]2CN(CCc2ccccc2)C3)c1 (relative stereo) |  | 26 | 
CC1=C(C)C[C@]2(c3cccc(O)c3)CN(CC3CC3)C[C@H]2C1 (relative stereo) [Example 2, N-Cyclopropylmethyl-3a-(m-hydroxyphenyl)-5,6-dimethyl-2,3,3a,4,7,7a-trans-hexahydroisoindole] |  |  | ED50 [3]: 5.2 mg/kg
Oc1cccc([C@]23CC=CC[C@H]2CN(CCc2ccccc2)C3)c1 (relative stereo) [Example 7, N-Phenethyl-3a-(m-hydroxyphenyl)-2,3,3a,4,7,7a-cis-hexahydroisoindole] |  |  | ED50 [3]: 43 mg/kg
Oc1cccc([C@]23CC=CC[C@H]2CN(CCc2ccccc2)C3)c1 (relative stereo) [Example 8, N-Phenethyl-3a-(m-hydroxyphenyl)-2,3,3a,4,7,7a-hexahydroisoindole Hydrochloride] |  |  | ED50, prevention of 90° Straub tail (narcotic antagonism) ([3]; Hydrochloride): 54 mg/kg
CC1=C(C)C[C@]2(c3cccc(O)c3)CN(CC3CC3)C[C@H]2C1 (relative stereo) [drawing 69] | > 162 | 120 | 
Oc1cccc([C@]23CC=CC[C@H]2CN(CCc2ccccc2)C3)c1 (relative stereo) [drawing 74] |  | 19 | 
CC(C)=CCN1CCC2(C)c3cc(O)ccc3CC1C2C (stereo not shown) [Pentazocine, reference compound] |  |  | ED50 [3]: 4 mg/kg; prevention of the induction of Straub tail [4]: can prevent the induction of Straub tail
C=CCN1CC[C@]23c4c5ccc(O)c4O[C@H]2[C@@H](O)C=C[C@H]3[C@H]1C5 [nalorphine] |  |  | prevention of the induction of Straub tail [4]: can prevent the induction of Straub tail
C=CCN1CC[C@]23c4c5ccc(O)c4O[C@H]2C(=O)CC[C@@]3(O)[C@H]1C5 [naloxone] |  |  | prevention of the induction of Straub tail [4]: can prevent the induction of Straub tail
